From patent US20220306659A1, “COMPOUND INHIBITING AND INDUCING DEGRADATION OF EGFR AND ALK” (BEIJING TIDE PHARMACEUTICAL CO., LTD., priority 2019, published 2022)

Assays:
[1] = molecular target: Ba/F3(EGFR^Del19/T790M/C797S) cells (Homo sapiens, UniProt P00533, DEL746-750/T790M/C797S, cells depend on it); assay: Assay of activity on Ba/F3 cells (CTG, 72 h); type: cell-based; conditions: read-out: IC50 (nM) Ba/F3 (EGFR^Del19/T790M/C797S)
Procedure: (§1) (2) A compound stock solution was prepared, and then diluted 3× to obtain a compound dilution. 30 nL of the compound dilution was added to a 384-well plate by Echo (Labcyte, Echo550). The cells were incubated in an incubator at 37° C. and 5% CO2 for 72 h.
(§2) The percent inhibition rate (% inhibition) was calculated by the following formula
(§3) LUMcmpd: Luminescence value of assay compound.
(§4) LUMpositive: Average LUM value of positive drug at a concentration of 10 μM.
(§5) LUMvehicle. Average LUM value of negative control group without drug treatment.
(§6) The nonlinear regression curve (dose response-variable slope) between the value of inhibition rate (%) and the logarithm of compound concentration was fitted with graphpad prism 8.0, the effect dose curve of compound was drawn, and the IC50 value was calculated.
(§7) Y=Bottom+(Top−Bottom)/(1+1^((LogIC50−X)*HillSlope))
(§8) X-axis: logarithm of compound concentration; Y axis: inhibition rate ([…]).

[2] = molecular target: Ba/F3(EGFR^L858R/T790M/C797S) cells (Homo sapiens, UniProt P00533, T790M/C797S/L858R, cells depend on it); assay: Assay of activity on Ba/F3 cells (CTG, 72 h); type: cell-based; conditions: read-out: IC50 (nM) Ba/F3 (EGFR^L858R/T790M/C797S)
Procedure: as §1, §2, §3, §4, §5, §6, §7, §8

EGFR^L858R/T790M/C797S = EGFR^L858R/T790M/C797S (Homo sapiens, UniProt P00533, C797S/L858R/T790M); assay: EGFR inhibitory activity assay (TK-substrate-biotin/ATP, 665/615 ratio); type: biochemical; conditions: kinase inhibition
Procedure: EGFR Inhibitory Activity Assay
(1) A compound stock solution was prepared and diluted 3× to obtain a compound dilution; 10 nL of the compound dilution was transferred to a 384-well plate (784075, Greiner) by Echo 550;
(2) The plate was sealed, and centrifuged at 1,000 g for 1 min;
(4) 5 μl of the 2×EGFR protein working solution was added to the 384-well plate from step (2), centrifuged at 1,000 g for 30 s, and allowed to stand at room temperature (mixed thoroughly) for 10 min;
(6) 5 µL of the TK-substrate-biotin and ATP (the mixture prepared in step (5)) was added to the 384-well plate from step (4) to initiate the reaction;
(7) The mixture was centrifuged at 1,000 g for 30 s; the plate was sealed, and allowed to stand (and reacted) at room temperature for 40 min;
(8) 4×Sa-XL 665 and TK-antibody-Cryptate were prepared with detection buffer;
(9) 5 µL of the Sa-XL 665 and 5 µL of the TK-antibody-Cryptate were added successively to the 384-well plate from step (7);
(10) The mixture was centrifuged at 1,000 g for 30 s, and allowed to stand (reacted) at room temperature for 1 h;
(11) The fluorescence values were read at 615 nm and 665 nm by enzyme labeling instrument (PerkinElmer, 74785).
The ratio (665/615) of each well was calculated.
Formula of inhibition rate (%): […]
Ratiocmpd: Ratio (665/615) value of assay compound.
Ratiopositive: Average ratio (665/615) value of positive control.
Ratiovehicle: Average ratio (665/615) value of negative control.
as §6

Chain of EGFR^L858R/T790M/C797S (P00533 25-1210 T790M/C797S/L858R): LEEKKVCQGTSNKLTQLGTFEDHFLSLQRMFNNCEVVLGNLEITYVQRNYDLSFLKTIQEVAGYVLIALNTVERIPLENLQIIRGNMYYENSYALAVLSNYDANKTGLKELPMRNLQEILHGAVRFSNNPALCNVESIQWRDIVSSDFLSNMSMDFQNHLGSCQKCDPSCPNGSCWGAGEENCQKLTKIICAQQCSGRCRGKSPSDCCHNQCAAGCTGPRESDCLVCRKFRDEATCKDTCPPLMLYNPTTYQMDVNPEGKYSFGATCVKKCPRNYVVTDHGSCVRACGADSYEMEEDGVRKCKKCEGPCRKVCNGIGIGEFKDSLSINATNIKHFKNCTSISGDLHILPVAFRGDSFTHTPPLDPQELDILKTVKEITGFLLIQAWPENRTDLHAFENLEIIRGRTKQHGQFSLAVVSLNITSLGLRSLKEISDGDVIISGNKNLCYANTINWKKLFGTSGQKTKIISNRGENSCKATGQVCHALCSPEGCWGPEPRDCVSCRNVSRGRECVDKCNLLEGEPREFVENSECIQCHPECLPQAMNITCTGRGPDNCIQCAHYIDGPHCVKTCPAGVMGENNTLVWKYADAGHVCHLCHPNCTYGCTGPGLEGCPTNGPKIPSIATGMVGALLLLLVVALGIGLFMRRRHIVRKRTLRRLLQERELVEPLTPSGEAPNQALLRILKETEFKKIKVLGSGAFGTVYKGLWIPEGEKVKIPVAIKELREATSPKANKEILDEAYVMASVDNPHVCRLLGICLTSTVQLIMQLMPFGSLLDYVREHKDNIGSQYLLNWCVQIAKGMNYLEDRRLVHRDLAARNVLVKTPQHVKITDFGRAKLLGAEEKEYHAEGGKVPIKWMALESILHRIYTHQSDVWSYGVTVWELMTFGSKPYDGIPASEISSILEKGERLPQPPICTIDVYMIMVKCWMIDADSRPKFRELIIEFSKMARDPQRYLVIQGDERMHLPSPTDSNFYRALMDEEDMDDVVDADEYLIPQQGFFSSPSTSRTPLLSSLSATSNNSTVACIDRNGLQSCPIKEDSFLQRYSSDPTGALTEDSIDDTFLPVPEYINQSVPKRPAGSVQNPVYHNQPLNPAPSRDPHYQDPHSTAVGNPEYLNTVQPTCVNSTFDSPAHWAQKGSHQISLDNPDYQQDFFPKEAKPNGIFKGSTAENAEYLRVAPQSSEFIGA
Chain of Ba/F3(EGFR^L858R/T790M/C797S) cells (P00533 whole entry T790M/C797S/L858R): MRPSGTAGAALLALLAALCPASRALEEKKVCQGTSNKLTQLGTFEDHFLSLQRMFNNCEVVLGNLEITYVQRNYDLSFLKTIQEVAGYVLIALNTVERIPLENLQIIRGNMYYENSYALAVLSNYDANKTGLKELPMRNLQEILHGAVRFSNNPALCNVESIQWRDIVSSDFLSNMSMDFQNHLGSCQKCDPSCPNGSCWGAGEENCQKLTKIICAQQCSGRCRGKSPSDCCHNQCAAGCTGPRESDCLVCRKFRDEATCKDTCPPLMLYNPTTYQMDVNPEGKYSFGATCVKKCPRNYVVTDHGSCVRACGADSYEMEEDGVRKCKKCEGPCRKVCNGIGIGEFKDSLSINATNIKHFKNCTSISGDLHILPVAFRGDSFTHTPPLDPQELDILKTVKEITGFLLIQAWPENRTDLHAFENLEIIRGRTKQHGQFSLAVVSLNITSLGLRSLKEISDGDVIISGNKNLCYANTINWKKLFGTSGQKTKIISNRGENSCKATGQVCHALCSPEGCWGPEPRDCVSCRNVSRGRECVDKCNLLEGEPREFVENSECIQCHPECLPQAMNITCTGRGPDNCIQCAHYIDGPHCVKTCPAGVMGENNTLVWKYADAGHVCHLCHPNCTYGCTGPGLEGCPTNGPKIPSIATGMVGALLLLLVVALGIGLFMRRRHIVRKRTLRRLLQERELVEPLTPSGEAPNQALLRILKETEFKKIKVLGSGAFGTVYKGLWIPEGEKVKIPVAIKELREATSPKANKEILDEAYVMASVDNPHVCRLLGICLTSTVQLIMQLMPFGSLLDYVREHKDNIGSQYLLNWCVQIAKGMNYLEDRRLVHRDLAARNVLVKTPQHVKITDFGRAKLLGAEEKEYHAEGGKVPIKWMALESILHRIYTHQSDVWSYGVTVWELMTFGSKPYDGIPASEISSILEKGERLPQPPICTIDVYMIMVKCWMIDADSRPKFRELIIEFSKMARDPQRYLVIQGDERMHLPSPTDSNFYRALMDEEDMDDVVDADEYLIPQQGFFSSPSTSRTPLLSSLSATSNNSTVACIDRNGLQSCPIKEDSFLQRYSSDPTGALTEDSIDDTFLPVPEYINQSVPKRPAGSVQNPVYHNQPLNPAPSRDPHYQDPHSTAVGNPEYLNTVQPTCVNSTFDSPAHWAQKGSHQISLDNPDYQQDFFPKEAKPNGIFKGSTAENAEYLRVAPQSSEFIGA
Chain of Ba/F3(EGFR^Del19/T790M/C797S) cells (P00533 with tags, fused parts or gaps DEL746-750/T790M/C797S): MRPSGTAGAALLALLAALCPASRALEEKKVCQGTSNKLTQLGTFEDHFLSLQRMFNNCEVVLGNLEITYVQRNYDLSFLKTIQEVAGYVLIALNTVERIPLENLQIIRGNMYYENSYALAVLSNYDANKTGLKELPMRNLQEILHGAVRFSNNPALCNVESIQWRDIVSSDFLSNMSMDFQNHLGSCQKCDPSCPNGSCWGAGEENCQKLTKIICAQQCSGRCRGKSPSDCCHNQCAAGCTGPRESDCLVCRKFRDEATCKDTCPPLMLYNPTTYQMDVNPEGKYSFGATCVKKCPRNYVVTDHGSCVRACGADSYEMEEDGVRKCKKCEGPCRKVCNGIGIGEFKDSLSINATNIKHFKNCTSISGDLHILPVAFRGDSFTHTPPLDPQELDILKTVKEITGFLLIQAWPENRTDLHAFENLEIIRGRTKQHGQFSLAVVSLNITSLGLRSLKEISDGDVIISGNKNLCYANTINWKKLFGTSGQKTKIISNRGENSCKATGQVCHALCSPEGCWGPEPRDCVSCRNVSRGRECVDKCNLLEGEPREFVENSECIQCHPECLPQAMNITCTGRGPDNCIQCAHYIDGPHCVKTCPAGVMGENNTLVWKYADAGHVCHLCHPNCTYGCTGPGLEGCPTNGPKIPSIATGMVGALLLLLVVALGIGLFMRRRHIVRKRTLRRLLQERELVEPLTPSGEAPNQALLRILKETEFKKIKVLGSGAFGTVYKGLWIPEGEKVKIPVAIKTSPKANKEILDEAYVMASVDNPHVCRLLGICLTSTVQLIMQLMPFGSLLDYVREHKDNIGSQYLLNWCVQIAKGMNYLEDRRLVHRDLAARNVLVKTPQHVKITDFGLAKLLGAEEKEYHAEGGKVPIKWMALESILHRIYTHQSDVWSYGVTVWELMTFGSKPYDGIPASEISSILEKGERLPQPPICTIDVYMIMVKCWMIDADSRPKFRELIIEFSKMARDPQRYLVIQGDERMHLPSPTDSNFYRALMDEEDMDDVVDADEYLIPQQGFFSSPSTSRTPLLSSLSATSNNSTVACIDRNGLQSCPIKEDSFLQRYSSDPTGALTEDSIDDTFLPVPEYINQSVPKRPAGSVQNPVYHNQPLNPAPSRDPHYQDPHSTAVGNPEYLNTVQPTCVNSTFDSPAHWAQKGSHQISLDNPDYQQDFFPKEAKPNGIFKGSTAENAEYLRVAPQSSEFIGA

Row | Structure (SMILES) | GI50 [1] [nM] | GI50 [2] [nM] | IC50 (EGFR^L858R/T790M/C797S) [nM]
1 | COc1cc(N2CCC(N3CCNCC3)CC2)ccc1Nc1ncc(Cl)c(Nc2ccccc2P(C)(C)=O)n1 [Compound A1-4, (2-((5-Chloro-2-((2-methoxy-4-(4-(piperazin-1-yl)piperidin-1-yl)phenyl)amino)pyrimidin-4-yl)amino)phenyl)dimethyl phosphorus oxide] | > 300 | > 300 | 
2 | COc1cc(N2CCC(N3CCN(CC(=O)NCCNc4cccc5c4C(=O)N(C4CCC(=O)NC4=O)C5=O)CC3)CC2)ccc1Nc1ncc(Cl)c(Nc2ccccc2P(C)(C)=O)n1 (stereo not shown) [Compound A6, 2-(4-(1-(4-((5-chloro-4-((2-(dimethylphosphoryl)phenyl)amino)pyrimidin-2-yl)amino)-3-methoxyphenyl)piperidin-4-yl)piperazin-1-yl)-N-(2-((2-(2,6-dioxopiperidin-3-yl)-1,3-dioxoisoindolin-4-yl)amino)ethyl)acetamide] |  |  | 1 to 100
3 | C=Cc1cnc(Nc2ccc(N3CCC(N4CCN(CCCCCCCCCOc5cccc6c5C(=O)N(C5CCC(=O)NC5=O)C6=O)CC4)CC3)cc2OC)nc1Nc1ccccc1P(C)(C)=O (stereo not shown) [Compound C25, 4-((9-(4-(1-(4-((4-((2-(dimethylphosphoryl)phenyl)amino)-5-vinylpyrimidin-2-yl)amino)-3-methoxyphenyl)piperidin-4-yl)piperazin-1-yl)nonyl)oxy)-2-(2,6-dioxopiperidin-3-yl)isoindoline-1,3-dione] |  | 201 to 300 | 101 to 200
4 | COc1cc(N2CCC(N3CCN(CC(=O)N4CCC(OCC(=O)Nc5cccc6c5CN(C5CCC(=O)NC5=O)C6=O)CC4)CC3)CC2)ccc1Nc1ncc(Cl)c(Nc2ccccc2P(C)(C)=O)n1 (stereo not shown) [Compound C78, 2-((1-(2-(4-(1-(4-((5-chloro-4-((2-(dimethylphosphoryl)phenyl)amino)pyrimidin-2-yl)amino)-3-methoxyphenyl)piperidin-4-yl)piperazin-1-yl)acetyl)piperidin-4-yl)oxy)—N-(2-(2,6-dioxopiperidin-3-yl)-1-oxoisoindolin-4-yl)acetamide] |  | > 300 | 1 to 100
5 | COc1cc(N2CCC(N3CCN(CC(=O)NC4CCN(CC(=O)Nc5cccc6c5CN(C5CCC(=O)NC5=O)C6=O)CC4)CC3)CC2)ccc1Nc1ncc(Cl)c(Nc2ccccc2P(C)(C)=O)n1 (stereo not shown) [Compound C88, 2-(4-(1-(4-((5-chloro-4-((2-(dimethylphosphoryl)phenyl)amino)pyrimidin-2-yl)amino)-3-methoxyphenyl)piperidin-4-yl)piperazin-1-yl)-N-(1-(2-((2-(2,6-dioxopiperidin-3-yl)-1-oxoisoindolin-4-yl)amino)-2-oxoethyl)piperidin-4-yl)acetamide] |  | > 300 | 1 to 100
6 | COc1cc(N2CCC(N3CCN(CC(=O)N[C@H](COc4cccc5c4C(=O)N(C4CCC(=O)NC4=O)C5=O)C(C)(C)C)CC3)CC2)ccc1Nc1ncc(Cl)c(Nc2ccccc2P(C)(C)=O)n1 (stereo partly drawn) [Compound C112, 2-(4-(1-(4-((5-chloro-4-((2-(dimethylphosphoryl)phenyl)amino)pyrimidin-2-yl)amino)-3-methoxyphenyl)piperidin-4-yl)piperazin-1-yl)-N-((2S)-1-((2-(2,6-dioxopiperidin-3-yl)-1,3-dioxoisoindolin-4-yl)oxy)-3,3-dimethylbutan-2-yl)acetamide] |  |  | 1 to 100
7 | COc1cc(N2CCC(N3CCN(CCCCCCCOC4CN(c5cccc6c5C(=O)N(C5CCC(=O)NC5=O)C6=O)C4)CC3)CC2)ccc1Nc1ncc(Cl)c(Nc2ccccc2P(C)(C)=O)n1 (stereo not shown) [Compound C150, 4-(3-((7-(4-(1-(4-((5-chloro-4-((2-(dimethylphosphoryl)phenyl)amino)pyrimidin-2-yl)amino)-3-methoxyphenyl)piperidin-4-yl)piperazin-1-yl)heptyl)oxy)azetidin-1-yl)-2-(2,6-dioxopiperidin-3-yl)isoindoline-1,3-dione] |  | > 300 | 
8 | COc1cc(N2CCC(N3CCN(CCCCCn4cc(-c5cccc6c5CN(C5CCC(=O)NC5=O)C6=O)cn4)CC3)CC2)ccc1Nc1ncc(Cl)c(Nc2ccccc2P(C)(C)=O)n1 (stereo not shown) [Compound C162, 3-(4-(1-(5-(4-(1-(4-((5-chloro-4-((2-(dimethylphosphoryl)phenyl)amino)pyrimidin-2-yl)amino)-3-methoxyphenyl)piperidin-4-yl)piperazin-1-yl)pentyl)-1H-pyrazol-4-yl)-1-oxoisoindolin-2-yl)piperidine-2,6-dione] | > 300 | > 300 | 
9 | COc1cc(N2CCC(N3CCN(CCCCCC#Cc4c(F)ccc5c4CN(C4CCC(=O)NC4=O)C5=O)CC3)CC2)ccc1Nc1ncc(Cl)c(Nc2ccccc2P(C)(C)=O)n1 (stereo not shown) [Compound C166, 3-(4-(7-(4-(1-(4-((5-chloro-4-((2-(dimethylphosphoryl)phenyl)amino)pyrimidin-2-yl)amino)-3-methoxyphenyl)piperidin-4-yl)piperazin-1-yl)hept-1-yn-1-yl)-5-fluoro-1-oxoisoindolin-2-yl)piperidine-2,6-dione] | 1 to 100 | 101 to 200 | 
10 | COc1cc(N2CCC3(CCN(CCOCC#Cc4cccc5c4CN(C4CCC(=O)NC4=O)C5=O)CC3)CC2)c(C)cc1Nc1ncc(Br)c(Nc2ccc3nccnc3c2P(C)(C)=O)n1 (stereo not shown) [Compound C174, 3-(4-(3-(2-(9-(4-((5-bromo-4-((5-(dimethylphosphoryl)quinoxalin-6-yl)amino)pyrimidin-2-yl)amino)-5-methoxy-2-methylphenyl)-3,9-diazaspiro[5.5]undecan-3-yl)ethoxy)prop-1-yn-1-yl)-1-oxoisoindolin-2-yl)piperidine-2,6-dione] | 1 to 100 | 1 to 100 | 
11 | COc1cc(N2CCC(N3CCN(CCCc4ccc(-c5ccc6c(c5)CN(C5CCC(=O)NC5=O)C6=O)cc4)CC3)CC2)ccc1Nc1ncc(Cl)c(Nc2ccccc2P(C)(C)=O)n1 (stereo not shown) [Compound C235, 3-(5-(4-(3-(4-(1-(4-((5-chloro-4-((2-(dimethylphosphoryl)phenyl)amino)pyrimidin-2-yl)amino)-3-methoxyphenyl)piperidin-4-yl)piperazin-1-yl)propyl)phenyl)-1-oxoisoindolin-2-yl)piperidine-2,6-dione] | 1 to 100 | 1 to 100 | 
12 | COc1cc(N2CCC(N3CCN(CCCCC#Cc4ccc(F)c5c4CN(C4CCC(=O)NC4=O)C5=O)CC3)CC2)ccc1Nc1ncc(Cl)c(Nc2ccccc2P(C)(C)=O)n1 (stereo not shown) [Compound C244, 3-(4-(6-(4-(1-(4-((5-chloro-4-((2-(dimethylphosphoryl)phenyl)amino)pyrimidin-2-yl)amino)-3-methoxyphenyl)piperidin-4-yl)piperazin-1-yl)hex-1-yn-1-yl)-7-fluoro-1-oxoisoindolin-2-yl)piperidine-2,6-dione] | 1 to 100 | 1 to 100 | 
13 | COc1cc(N2CCC(N3CCN(CCCCCOc4cccc5c4CN(C4CCC(=O)NC4=O)C5=O)CC3)CC2)c(C)cc1Nc1ncc(Br)c(Nc2ccc3nccnc3c2P(C)(C)=O)n1 (stereo not shown) [Compound C246, 3-(4-((5-(4-(1-(4-((5-bromo-4-((5-(dimethylphosphoryl)quinoxalin-6-yl)amino)pyrimidin-2-yl)amino)-5-methoxy-2-methylphenyl)piperidin-4-yl)piperazin-1-yl)pentyl)oxy)-1-oxoisoindolin-2-yl)piperidine-2,6-dione] | 1 to 100 | 1 to 100 | 
14 | COc1cc(N2CCC3(CCN(CCCCCCc4cccc5c4CN(C4CCC(=O)NC4=O)C5=O)CC3)CC2)c(C)cc1Nc1ncc(Br)c(Nc2ccc3nccnc3c2P(C)(C)=O)n1 (stereo not shown) [Compound C299, 3-(4-(6-(9-(4-((5-bromo-4-((5-(dimethylphosphoryl)quinoxalin-6-yl)amino)pyrimidin-2-yl)amino)-5-methoxy-2-methylphenyl)-3,9-diazaspiro[5.5]undecan-3-yl)hexyl)-1-oxoisoindolin-2-yl)piperidine-2,6-dione] | 1 to 100 | 1 to 100 | 
